Test results: patent US20250032430A1, “USES OF RHODOQUINONE FOR THE TREATMENT OF DISEASE” (Whitehead Institute for Biomedical Research, priority 2021, published 2025)
Where two headings read alike, the source gives them in different places.

Tests used:
mammalian cells = assay: Resistance of cells to hypoxia; type: cell-based
kidney = assay: Kidney tissue cultured ex vivo (quinone levels, fumarate reduction); design: species or system mouse; details: kidney cultured ex vivo for 96 hours, reduced rhodoquinone levels; succinate oxidation not affected
Description: (§1) Ex vivo stable isotope tracing on tissues: Tissues were excised from mice and washed in 1×PBS. Tissues were then cut into small pieces and placed in the appropriate stable isotope tracing media. Stable isotope tracing media contained either ^13C5^15N2-glutamine (Sigma) or 13C4-aspartate (Sigma) dissolved in DMEM, 5% FBS, 1% P/S. For ex vivo tracing experiments performed on the brain, the same media was used without FBS. Tissues were incubated for the designated time at 37° C. in a normal or hypoxia tissue culture incubator. Tissues were removed from the media, washed with PBS, and flash frozen in liquid nitrogen. Samples could be stored at −80° C. until metabolites were isolated.
Rhodoquinone-9 is a previously unknown mammalian metabolite. Without wishing to be bound by any particular theory, it is believed that since the level of rhodoquinone-9 decreases overtime when the kidney is cultured ex vivo, that cultured media is missing a component of the rhodoquinone biosynthetic pathway, and that this component may be coming from the gut microbiome.

143B cells = assay: 14C-palmitate degradation radioactivity assay (fatty acid oxidation); type: cell-based, human; details: WT (UQ-containing) versus RquA (RQ-containing) 143B cells
From the text: Radioactivity assay to monitor 14C-palmitate degradation in WT (UQ-containing) and RquA (RQ-containing) 143B cells.

MT-DNA copy number = assay: MT-DNA quantification; type: cell-based, human; details: SDHA and SDHB knockout cells
Description: MT-DNA Quantification: Cells were pelleted, washed 1× in PBS, and then lysed in buffer (25 mM NaOH, 0.2 mM EDTA) for 15 minutes at 95° C. Lysis was neutralized with buffer (40 mM Tris-HCl) and centrifuged at 16,000×g for 10 minutes at 4° C. Supernatant containing MT-DNA was quantified on a CFX96 Real-Time System Thermal Cycler (Bio Rad). Primers amplifying the MT-DNA marker D-Loop (Forward Primer-[…] (SEQ ID NO: 5) Reverse Primer—[…]) (SEQ ID NO: 6) and the nuclear DNA marker B-Globin (Forward Primer-[…] (SEQ ID NO: 7) Reverse Primer—[…]) (SEQ ID NO: 8) were used and the relative MT-DNA to nuclear DNA was quantified in each sample [4].

SDH complex = assay: Ex vivo net direction of the SDH complex in mouse tissues; details: ex vivo antimycin treatment of liver, kidney, heart, skeletal muscle
Description: as §1
Isolation of metabolites from tissues: Tissues were flash frozen and powderized with a mortar and pestle in a liquid nitrogen bath. Approximately 30 mg of tissue powder was transferred into eppendorf tubes and re-suspended in 800 uL ice-cold LC-MS grade 60:40 Methanol:Water (ThermoFisher). Samples were vortexed for 10 minutes at 4° C. […] The top layer was transferred to a new tube, dried down in a speedvac, and subsequently stored at −80° C. until they were analyzed by LC-MS. […] Protein in each sample was quantified using the Pierce BCA Protein Assay Kit (Life Technologies). […]

complex I = assay: NAD+/NADH ratio in cells; type: cell-based, human; details: SDHB-null cells treated with antimycin versus wild-type cells treated with antimycin
Description: Next, fumarate reduction was tested to determine if it sustains complex I activity in cells incapable of using O2 as a terminal electron acceptor. Both the NAD+/NADH ratio, which is an indicator of complex I-mediated NADH reoxidation, and the mitochondrial membrane potential (ΔΨ^Mito) to which complex I contributes via proton pumping. […] Thus, fumarate reduction supports partial complex I activity, specifically NADH reoxidation and ΔΨ^Mito, in cells incapable of reducing O2 in the ETC.

DHODH [1] = molecular target: DHODH (Homo sapiens, UniProt Q02127); details: for de novo UTP biosynthesis (13C3-UTP generation, DHODH activity): wild-type 143B cells, 13C4-aspartate tracing 8 hours, 500 nM antimycin, 2 μM brequinar
Description: Stable isotope tracing in cells: Cells were seeded 24 hours prior to the experiment in 6-well dishes at 70% density. For stable isotope tracing of glutamine, glutamine-free DMEM (ThermoFisher) was supplemented with 2 mM ^13C5^15N2-glutamine (Sigma), 1 mM pyruvate, 5% FBS, 1% P/S, 0.1 mg/mL uridine. For stable isotope tracing of aspartate, DMEM containing 5% FBS, and 1% penicillin and streptomycin, and 0.1 mg/mL uridine (Sigma) was supplemented with the designated amount of 13C4-aspartate (Sigma) and the pH adjusted to 7.4. Uridine was left out of the media for stable isotope tracing experiments measuring nucleotide biosynthesis. Unless otherwise stated, for all experiments, cells were treated for 8 hours and metabolites were isolated as described below. Relevant compounds were added at the start of the incubation periods.
Isolation of metabolites from adherent cells: To isolate metabolites, media was removed, cells were washed 2 times with ice cold 1×PBS, and wells were covered in LC-MS grade 80:20 Methanol:Water (ThermoFisher). Plates were scraped on dry ice and lysates were collected into eppendorf tubes. Lysates were vortexed for 10 minutes at 4° C. and centrifuged at 16,000×g for 10 minutes at 4° C. Supernatants were immediately dried down in a Refrigerated CentriVap Benchtop Vacuum Concentrator connected to a CentriVap-105 Cold Trap (Labconco). Dried pellets were stored at −80° C. until they were run on LC-MS.
Liquid Chromatography and Mass Spectrometry (polar): A QExactive bench top orbitrap mass spectrometer equipped with an Ion Max source and a HESI II probe coupled to a Dionex UltiMate 3000 HPLC system (Thermo Fisher Scientific) was used to perform all LC-MS experiments. The instrument underwent mass calibration using the standard calibration mixture every 7 days. 2 μL of re-suspended polar metabolite samples were injected onto a SeQuant ZIC-pHILIC 5 μm 150×2.1 mm analytical column equipped with a 2.1×20 mm guard column (MilliporeSigma). The column oven was held at 25° C. and the autosampler tray was held at 4° C. Buffer A was comprised of 20 mM ammonium carbonate, 0.1% ammonium hydroxide. Buffer B was comprised of 100% acetonitrile. The chromatographic gradient was run at a flow rate of 0.150 mL/min as follows: 0-20 min: linear gradient from 80-20% B; 20-20.5 min: linear gradient from 20-80% B; 20.5-28 min: hold at 80% B. The mass spectrometer was operated in full-scan, polarity-switching mode, with the spray voltage set to 3.0 kV, the heated capillary at 275° C., and the HESI probe at 350° C. The sheath gas flow was 40 units, the auxiliary gas flow was 15 units, and the sweep gas flow was 1 unit. MS data was collected in a range of m/z=70-1000. The resolution set at 70,000, the AGC target at 1×106, and the maximum injection time at 20 msec. An additional scan (m/z=220-700) was included in negative mode only to enhance detection of nucleotides.

[2] = test system: mitochondrial membrane potential; assay: Mitochondrial membrane potential (TMRE dye); type: cell-based, human
Description: Live Cell Imaging: 143B cells were seeded at 50% density in 6-well dishes 24 hours prior to the experiment. Cells were pre-incubated with 500 nM TMRE dye for 30 minutes and then imaging on a Nikon TE2000 inverted microscope was started. Images were taken at 1 minute intervals over the course of an hour in the mCherry channel while the plate was incubated in a chamber maintaining a temperature of 37° C. and 5% CO2.
Flow Cytometry: Cells were seeded 24 hours prior to the experiment at 50% density. On the day of the experiment, the cells were treated for the designated time with inhibitors. 30 minutes prior to the end of the incubation, 500 nM TMRE dye was added to the wells. Following incubation cells were washed, trypsinized, and filtered through a cell strainer prior to sorting. Fluorescence-activated cell sorting was performed on a LSR-II sorter, in which the fluorescence intensity of individual cells was quantified in the PE channel. Data were analyzed using FlowJo software (TreeStar).

DHODH [3] = assay: Ex vivo DHODH activity in mouse tissues (13C4-aspartate into 13C4-orotate); details: 2 μM antimycin
Description: Because net-reversal of the SDH complex supports DHODH activity in cultured cells when O2 reduction is blocked (FIG. 3), mouse tissues were tested. DHODH activity was measured in tissues that are capable (the liver and kidney) or incapable (the heart and gastrocnemius muscle) of net-reversing the SDH complex when O2 reduction is limited. […] Next, DHODH activity was assessed via ^13C4-aspartate incorporation into ^13C4-orotate, because labelling of the ^13C3-UTP pool was undetectable in most tissues.
as §1, with “Tissues were removed from the media, washed with PBS, and flash frozen in liquid nitrogen. Samples could be stored at −80° C. until metabolites were isolated.” left out
Isolation of metabolites from tissues: Tissues were flash frozen and powderized with a mortar and pestle in a liquid nitrogen bath. […] The top layer was transferred to a new tube, dried down in a speedvac, and subsequently stored at −80° C. until they were analyzed by LC-MS. […] Protein in each sample was quantified using the Pierce BCA Protein Assay Kit (Life Technologies). […]

Chain of DHODH (Homo sapiens, UniProt Q02127) (Q02127 whole entry): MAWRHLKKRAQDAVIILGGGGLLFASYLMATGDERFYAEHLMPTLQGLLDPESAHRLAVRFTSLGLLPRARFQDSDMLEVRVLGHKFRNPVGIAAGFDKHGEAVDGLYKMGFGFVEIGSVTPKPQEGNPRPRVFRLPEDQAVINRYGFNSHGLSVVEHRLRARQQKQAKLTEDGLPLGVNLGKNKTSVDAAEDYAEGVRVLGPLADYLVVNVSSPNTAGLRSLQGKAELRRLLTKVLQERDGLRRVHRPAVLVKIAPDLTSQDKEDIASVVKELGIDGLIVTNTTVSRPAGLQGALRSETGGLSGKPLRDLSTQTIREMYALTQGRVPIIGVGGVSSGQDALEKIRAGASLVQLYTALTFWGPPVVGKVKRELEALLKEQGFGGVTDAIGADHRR

Substance	resistance to hypoxia (mammalian cells)	fumarate reduction in the kidney (kidney)	fatty acid oxidation (14C-palmitate degradation) (143B cells)	MT-DNA copy number (MT-DNA copy number)	net-reversal of the SDH complex (SDH complex)	NAD+/NADH ratio (complex I)	DHODH activity (13C3-UTP production) (DHODH [1])	DHODH activity (13C4-aspartate into 13C3-UTP) (DHODH [1]; combined inhibition of complex III with antimycin and complex I with piericidin)	de novo UTP biosynthesis (13C3-UTP generation, DHODH activity) (DHODH [1])	de novo UTP biosynthesis (13C3-UTP generation, DHODH activity) (DHODH [1]; listed as Antimycin)	mitochondrial membrane potential (ΔΨMito) ([2]; SDHB-null cells versus wild-type cells, 30 minutes of antimycin treatment)	mitochondrial membrane potential (ΔΨMito) ([2]; wild-type cells, time course after antimycin)	levels of 13C4-orotate (DHODH activity) (DHODH [3]; ex vivo heart and gastrocnemius muscle)	levels of 13C4-orotate (DHODH activity) (DHODH [3]; ex vivo liver and kidney)
rhodoquinone	renders mammalian cells resistant to hypoxia	required for ubiquitous fumarate reduction	drives lower fatty acid oxidation	–	–	–	–	–	–	–	–	–	–	–
antimycin	–	–	–	did not alter	only the liver and kidney maintained net-reversal	lower	ablated	no effect	did not decrease	no effect	substantially more depolarized	initial reduction in the ΔΨ^Mito, which was restored to pre-treatment levels	reduced	remained unchanged
